Assay results as given in US10765114B2, “4-amino-6-(pyridyl and 2-substitutedphenyl)-picolinates and 6-amino-2-(pyridyl and 2-substitutedphenyl)-pyrimidine-4-carboxylates and their use as herbicides” (Dow AgroSciences LLC, priority 2013, dated 2020).

Tests used:
Assay in all cases: Pre-Emergent Test I
Format in all cases: in vivo
Details in all cases: preemergence
[1] = tested on: ECHSS (ECHCG: barnyardgrass (Echinochloa crus-galli))
Protocol: (§1) Pre-Emergent Test I Seeds of test species were planted into round plastic pots (5-inch diameter) containing sandy loam soil. After planting, all pots were sub-irrigated 16 h prior to compound application. Compounds were dissolved in a 97:3 v/v mixture of acetone and DMSO and diluted to the appropriate concentration in a final application solution containing water, acetone, isopropanol, DMSO and Agri-dex (crop oil concentrate) in a 59:23:15:1.0:1.5 v/v ratio and 0.02% w/v (weight/volume) of Triton X-155 to obtain the spray solution containing the highest application rate. Additional application rates were obtained by serial dilution of the high rate solution with the above application solution Formulated compound (2.7 mL) was pipetted evenly over the soil surface followed by incorporation with water (15 mL). Following treatment, pots were returned to the greenhouse for the duration of the experiment. The greenhouse was programmed for an approximate 15 h photoperiod which was maintained at about 23-29° C. during the day and 22-28° C. during the night. Nutrients and water were added on a regular basis through surface irrigation and supplemental lighting was provided with overhead metal halide 1000-Watt lamps as necessary. Herbicidal effect ratings were obtained 14 days after treatment. All evaluations were made relative to appropriate controls on a scale of 0 to 100 where 0 represents no herbicidal effect and 100 represents plant death or lack of emergence from the soil and presented in Table A. Some of the compounds tested, application rates employed, plant species tested, and results are given in Table 4.

[2] = tested on: AVEFA: wild oats (Avena fatua)
Protocol: as §1

[3] = tested on: SETFA: giant foxtail (Setaria faberi)
Protocol: as §1

[4] = tested on: AMARE: redroot pigwseed (Amaranthus retroflexus)
Protocol: as §1

[5] = tested on: IPOSS (IPOHE: ivyleaf morningglory (Ipomoea hederecea))
Protocol: as §1

[6] = tested on: HELAN: sunflower (Helianthus annuus)
Protocol: as §1

SMILES | Visual Growth Reduction (%) 14 Days After Application, ECHSS ([1]; 4 kg ai/ha) | Visual Growth Reduction (%) 14 Days After Application, AVEFA ([2]; 4 kg ai/ha) | Visual Growth Reduction (%) 14 Days After Application, SETFA ([3]; 4 kg ai/ha) | Visual Growth Reduction (%) 14 Days After Application, AMARE ([4]; 4 kg ai/ha) | Visual Growth Reduction (%) 14 Days After Application, IPOSS ([5]; 4 kg ai/ha) | Visual Growth Reduction (%) 14 Days After Application, HELAN ([6]; 4 kg ai/ha) | Visual Growth Reduction (%) 14 Days After Application, ECHSS ([1]; 3.8 kg ai/ha) | Visual Growth Reduction (%) 14 Days After Application, AVEFA ([2]; 3.8 kg ai/ha) | Visual Growth Reduction (%) 14 Days After Application, SETFA ([3]; 3.8 kg ai/ha) | Visual Growth Reduction (%) 14 Days After Application, AMARE ([4]; 3.8 kg ai/ha) | Visual Growth Reduction (%) 14 Days After Application, IPOSS ([5]; 3.8 kg ai/ha) | Visual Growth Reduction (%) 14 Days After Application, HELAN ([6]; 3.8 kg ai/ha)
COC(=O)c1nc(-c2ccc(C(F)(F)F)nc2)cc(N)c1Cl [Compound 4] | F (30-44) | G (0-29) | F (30-44) | D (60-74) | G (0-29) | G (0-29) | – | – | – | – | – | –
COC(=O)c1nc(-c2ccc(Cl)nc2F)cc(N)c1Cl [Compound 17, methyl 4-amino-5,6′-dichloro-2′-fluoro-[2,3′-bipyridine]-6-carboxylate] | – | – | – | – | – | – | F (30-44) | G (0-29) | G (0-29) | A (95-100) | A (95-100) | A (95-100)
